In assay [1] the test system is microorganisms. In words: Peptide activities: targeting/binding, antimicrobial, growth or phenotype altering (Tables 7, 8). It counts as cell-based. Conditions: peptides having multiple activities.
Assay [2] concerns microorganisms. In words: Targeting peptide binding to target microorganisms (Tables 3, 10, 12). The settings on record: microorganism(s) the targeting peptide binds, preferably 1x PBS.
In assay [3] the test system is microorganisms. Nature of the assay: Morphology, biofilm and growth disrupting peptides (Table 5). The assay is classed as cell-based. The arrangement: key: A: Peptide aggregates; B: Less hyphal formation; Clumps; Diffuse clumps and small polyps; F: Diffuse growth; H: Thin; I: Growth inhibition; Microcolony formation; Rippled; Small polyps; Thick; W: Halo formation on top, microlonies on bottom. From the text:
In certain embodiments peptides that induce alterations in phenotype or other biological activities can also be used as antimicrobial effector moieties.

Where [4] appears, read: binding in aqueous buffers that varied with peptide solubility.
Setting [5] is: binding in aqueous buffers varied with peptide solubility.

The values that follow come from US20110039763A1, “TARGETED ANTIMICROBIAL MOIETIES” (C3 JIAN, INC., priority 2009, published 2011).

Entries after “also recorded” stand apart in the source; their conditions may differ.

For “PF-048: peptide having multiple activities (LYFAFKKYQERVNQAPNIEY; Peptide with targeting and/or antimicrobial activity)”, in assay [1], the Activities result is on record as “G B”. Besides, in assay [2] (setting [4]), the “Target(s)” value is “S. epidermidis and M. luteus and E. coli and MRSA and C. jeikeium and C. jejuni”. Besides, in assay [3], the “Organism, effect: C. jeikeium” value was “C. jeikeium (S)”; the “Organism, effect: MRSA” value is reported as “MRSA (W)”; the “Organism, effect: S. epidermidis” value is “S. epidermidis (D)”.

With “PF-049: peptide having multiple activities (AYYLKRREEKGK; Peptide with targeting and/or antimicrobial activity)”, in assay [1], the Activities result is given as “G B”. Moreover, the “Target(s)” value in assay [2] (setting [4]) is “S. epidermidis and MRSA and C. jeikeium and C. jejuni”. Also, in assay [3], the “Organism, effect: MRSA” value is listed as “MRSA (S)”.

For “PF-051: peptide having multiple activities (RFFNFEIKKSTKVDYVFAHVDLSDV; Peptide with targeting and/or antimicrobial activity)”, in assay [1], the Activities entry is “G B”. In addition, the “Target(s)” value in assay [2] (setting [4]) was “S. epidermidis and M. luteus and P. aeruginosa and C. albicans and MRSA and S. pneumoniae and E. faecalis”. In assay [3], the “Organism, effect: M. luteus” value was “M. luteus (C)”; the “Organism, effect: MRSA” value was “MRSA (D)”; the “Organism, effect: S. epidermidis” value is on record as “S. epidermidis (D)”; the “Organism, effect: S. pneumoniae” value is given as “S. pneumoniae (D)”. In addition, the “Organism, effect: S. mutans” value in assay [3] (S. mutans, class symbol) is listed as “S. mutans (D)”.

Consider “PF-052: peptide having multiple activities (QELINEAVNLLVKSK; Peptide with targeting and/or antimicrobial activity)”, for which the Activities result in assay [1] is given as “G B”. Further, the “Target(s)” value in assay [2] (setting [4]) was “S. epidermidis and M. luteus and E. coli and MRSA and E. faecalis and C. jeikeium and C. jejuni”. Besides, in assay [3], the “Organism, effect: C. jeikeium” value is “C. jeikeium (D)”; the “Organism, effect: M. luteus” value is recorded as “M. luteus (A)”; the “Organism, effect: MRSA” value is reported as “MRSA (R)”; the “Organism, effect: S. epidermidis” value is “S. epidermidis (S)”.

Consider “PF-058: peptide having multiple activities (FADQSQDNA; Peptide with targeting and/or antimicrobial activity)”, for which the Activities entry in assay [1] is given as “G B”. In assay [2] (setting [4]), the “Target(s)” value was “S. epidermidis and M. luteus and E. coli and C. albicans and MRSA and C. jeikeium and C. jejuni”. Moreover, the “Organism, effect: MRSA” value in assay [3] is on record as “MRSA (M)”.

With “PF-061: peptide having multiple activities (GYNSYKAVQDVKTHSEEQRVTAKK; Peptide with targeting and/or antimicrobial activity)”, in assay [1], the Activities result was “G B”. The “Target(s)” value in assay [2] (setting [4]) is on record as “S. epidermidis; also recorded: S. pneumoniae”. In addition, in assay [3], the “Organism, effect: B. subtilis” value is “B. subtilis (R)”; the “Organism, effect: C. jejuni” value was “C. jejuni (R)”; the “Organism, effect: S. epidermidis” value was “S. epidermidis (R)”; the “Organism, effect: S. pneumoniae” value was “S. pneumoniae (R)”.

In the case of “PF-064: peptide having multiple activities (DYYGKE; Peptide with targeting and/or antimicrobial activity)”, the Activities entry in assay [1] is listed as “G B”. In addition, the “Target(s)” value in assay [2] (setting [4]) is recorded as “E. coli”. Besides, in assay [3], the “Organism, effect: MRSA” value is reported as “MRSA (M)” and the “Organism, effect: S. epidermidis” value is recorded as “S. epidermidis (D)”.

As for “PF-065: peptide having multiple activities (LEKNTRDNYFIHAIDRIYINTSKGLFPESELVAWG; Peptide with targeting and/or antimicrobial activity)”, the Activities entry in assay [1] is recorded as “G B”. Moreover, the “Target(s)” value in assay [2] (setting [4]) is “M. luteus and E. coli and P. aeruginosa and C. albicans and MRSA and S. pneumoniae and C. jeikeium and C. jejuni”. Besides, in assay [3], the “Organism, effect: C. jeikeium” value is reported as “C. jeikeium (A)”; the “Organism, effect: MRSA” value is listed as “MRSA (R)”; the “Organism, effect: S. epidermidis” value was “S. epidermidis (D)”.

In the case of “PF-069: peptide having multiple activities (chain 1 FDPVPLKKDKSASKHSHKHNH; chain 2 FDPVPLKKDKSASKHSHKHNH; Peptide with targeting and/or antimicrobial activity)”, the Activities entry in assay [1] is listed as “G B”. The “Target(s)” value in assay [2] (setting [4]) is recorded as “E. faecalis; also recorded: C. jejuni”. Also, in assay [3], the “Organism, effect: B. subtilis” value is listed as “B. subtilis (D)” and the “Organism, effect: C. jejuni” value was “C. jejuni (R)”.

“PF-070: peptide having multiple activities (chain 1 SMVKSEIVDLLNGEDNDD; chain 2 SMVKSEIVDLLNGEDNDD; Peptide with targeting and/or antimicrobial activity)”: in assay [1], the Activities result was “G B”. In addition, in assay [2] (setting [4]), the “Target(s)” value was “S. epidermidis; also recorded: C. jejuni”. Further, the “Organism, effect: B. subtilis” value in assay [3] is given as “B. subtilis (D)”.

With “PF-074: peptide having multiple activities (chain 1 RDIHPIYFMTKD; chain 2 RDIHPIYFMTKD; Peptide with targeting and/or antimicrobial activity)”, the Activities entry in assay [1] is reported as “G B”. In addition, in assay [2] (setting [5]), the “Target(s)” value was “S. epidermidis and M. luteus and MRSA”. Also, in assay [3], the “Organism, effect: MRSA” value was “MRSA (M)” and the “Organism, effect: S. epidermidis” value was “S. epidermidis (D)”.

Consider “PF-099: peptide having multiple activities (chain 1 EIIAYLEGRFANA; chain 2 EIIAYLEGRFANA; Peptide with targeting and/or antimicrobial activity)”, for which, in assay [1], the Activities entry was “G B”. In addition, in assay [2] (setting [5]), the “Target(s)” value is “S. epidermidis; also recorded: M. luteus; also recorded: E. coli; also recorded: C. jeikeium”. Also, in assay [3], the “Organism, effect: C. jeikeium” value is “C. jeikeium (C)” and the “Organism, effect: S. epidermidis” value was “S. epidermidis (D)”.

On to “PF-123: peptide having multiple activities (chain 1 TTRPQVAEDRQLDDALKETFPASDPISP; chain 2 TTRPQVAEDRQLDDALKETFPASDPISP; Peptide with targeting and/or antimicrobial activity)”, for which the Activities result in assay [1] was “G B”. For the same substance, in assay [2] (setting [5]), the “Target(s)” value is reported as “M. luteus; also recorded: E. coli”. Also, the “Organism, effect: S. epidermidis” value in assay [3] is listed as “S. epidermidis (M)”.

As for “PF-128: peptide having multiple activities (chain 1 GIKVVAARFEEIQFSENFDSIILA; chain 2 GIKVVAARFEEIQFSENFDSIILA; Peptide with targeting and/or antimicrobial activity)”, in assay [1], the Activities entry is “G B”. The “Target(s)” value in assay [2] (setting [5]) is reported as “M. luteus; also recorded: P. aeruginosa; also recorded: E. faecalis”. For the same substance, the “Organism, effect: P. aeruginosa” value in assay [3] (P. aeruginosa) was “P. aeruginosa (C)”. In addition, the “Organism, effect: S. epidermidis” value in assay [3] was “S. epidermidis (D)”.

Take “PF-129: peptide having multiple activities (chain 1 MKLLARDPWVCAWNDIW; chain 2 MKLLARDPWVCAWNDIW; Peptide with targeting and/or antimicrobial activity)”: the Activities entry in assay [1] is “G B”. Besides, the “Target(s)” value in assay [2] (setting [5]) was “S. epidermidis and MRSA and E. faecalis and C. jeikeium and C. jejuni”. In assay [3], the “Organism, effect: C. jeikeium” value is listed as “C. jeikeium (R)” and the “Organism, effect: S. epidermidis” value is “S. epidermidis (M)”.

Consider “PF-133: peptide having multiple activities (chain 1 GDPTAGQKPVECP; chain 2 GDPTAGQKPVECP; Peptide with targeting and/or antimicrobial activity)”, for which, in assay [1], the Activities result was “G B”. The “Target(s)” value in assay [2] (setting [5]) is given as “S. epidermidis; also recorded: C. jeikeium; also recorded: C. jejuni; also recorded: M. smegmatis”. For the same substance, the “Organism, effect: C. jeikeium” value in assay [3] was “C. jeikeium (R)”.

In the case of “PF-135: peptide having multiple activities (chain 1 PPARPARIPQTPTLHGASLFRQRS; chain 2 PPARPARIPQTPTLHGASLFRQRS; Peptide with targeting and/or antimicrobial activity)”, in assay [1], the Activities result was “G B”. Moreover, in assay [2] (setting [5]), the “Target(s)” value was “S. epidermidis and M. luteus and E. coli and P. aeruginosa and MRSA and C. jeikeium and M. smegmatis”. In addition, the “Organism, effect: C. jeikeium” value in assay [3] is “C. jeikeium (R)”.

Turning to “PF-144: peptide having multiple activities (chain 1 RSGQPVGRPSRRAWLR; chain 2 RSGQPVGRPSRRAWLR; Peptide with targeting and/or antimicrobial activity)”, in assay [1], the Activities result is recorded as “G B”. In assay [2] (setting [5]), the “Target(s)” value is “S. epidermidis and M. luteus and E. coli and C. albicans and MRSA and S. pneumoniae and E. faecalis and C. jeikeium”. Also, in assay [3], the “Organism, effect: S. pneumoniae” value is “S. pneumoniae (H)”.

“PF-149: peptide having multiple activities (chain 1 GKVSVLTRVPRSLGGAPANQ; chain 2 GKVSVLTRVPRSLGGAPANQ; Peptide with targeting and/or antimicrobial activity)”: in assay [1], the Activities entry was “G B”. Besides, in assay [2] (setting [5]), the “Target(s)” value is “S. epidermidis and M. luteus and E. coli and MRSA and C. jeikeium”. Also, the “Organism, effect: MRSA” value in assay [3] is given as “MRSA (H)”.

For the substance “PF-153: peptide having multiple activities (chain 1 GILARADCSQIA; chain 2 GILARADCSQIA; Peptide with targeting and/or antimicrobial activity)”, the Activities result in assay [1] is listed as “G B”. Further, the “Target(s)” value in assay [2] (setting [5]) was “M. luteus and P. mirabilis and E. coli and MRSA”. Moreover, in assay [3], the “Organism, effect: C. jeikeium” value is reported as “C. jeikeium (C)” and the “Organism, effect: S. epidermidis” value is recorded as “S. epidermidis (M)”.
